Like-named read-outs stand apart in the source and are kept apart here.
Experiments:
[1] = target: T1, α-glucosidase (Saccharomyces cerevisiae, EC.3.2.1.20) (Saccharomyces cerevisiae, UniProt P53341); test: biochemical; type: biochemical; conditions: mean ± SD, at least three experiments, read-out: IC50 (µM), in vitro α-glucosidase inhibitory activity
T1 construct: purchased Sigma-Aldrich
Description: α-Glucosidase enzyme (EC3.2.1.20, Saccharomyces cerevisiae, 20 U/mg) and substrate (p-nitrophenyl glucopyranoside) were purchased from Sigma-Aldrich. […] Finally, the change in absorbance was measured at 405 nm by using spectrophotometer (Gen5, Power wave xs2, BioTek, America). DMSO (10% final concentration) and acarbose were used respectively as control and standard drug. The percentage of enzyme inhibitionwas calculated and IC50 values were obtained from non-linear regression curve using the Logit method.

T1 sequence (P53341 whole entry): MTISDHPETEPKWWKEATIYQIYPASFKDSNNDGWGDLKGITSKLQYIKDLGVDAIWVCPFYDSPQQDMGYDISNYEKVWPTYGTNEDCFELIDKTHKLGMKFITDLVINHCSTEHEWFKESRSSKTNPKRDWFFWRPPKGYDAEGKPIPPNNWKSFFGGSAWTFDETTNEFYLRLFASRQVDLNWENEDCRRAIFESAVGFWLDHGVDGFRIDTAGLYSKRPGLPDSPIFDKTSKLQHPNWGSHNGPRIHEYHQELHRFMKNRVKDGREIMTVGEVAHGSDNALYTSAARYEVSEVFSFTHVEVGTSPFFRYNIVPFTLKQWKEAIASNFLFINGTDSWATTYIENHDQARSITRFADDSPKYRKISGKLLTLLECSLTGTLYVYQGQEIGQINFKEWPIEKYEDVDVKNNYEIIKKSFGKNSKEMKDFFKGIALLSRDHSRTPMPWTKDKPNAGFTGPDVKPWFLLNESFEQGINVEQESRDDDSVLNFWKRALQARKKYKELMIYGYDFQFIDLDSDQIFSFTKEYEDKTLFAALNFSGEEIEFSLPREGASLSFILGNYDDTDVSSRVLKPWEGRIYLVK

SMILES	IC50 ([1]; Table 1, compounds 3a-z) [µM]	melting point [°C]	IC50 ([1]; Table 2, compounds 3aa-ai) [µM]
Nc1c(-c2ccc(Cl)cc2)nc2c(C(=O)Nc3ccccc3)c(Nc3ccccc3)nn2c1-c1ccccc1 [3g, 6-Amino-5-(4-chlorophenyl)-N,7-diphenyl-2-(phenylamino)pyrazolo[1,5-a]pyrimidine-3-carboxamide]	75.6 ± 5	285 to 286	–
Nc1c(-c2ccccc2)nc2c(C(=O)Nc3ccccc3)c(Nc3ccccc3)nn2c1-c1ccc(Br)cc1 [3b, 6-Amino-7-(4-bromophenyl)-N,5-diphenyl-2-(phenylamino)pyrazolo[1,5-a]pyrimidine-3-carboxamide]	40 ± 2.9	235 to 237	–
Cc1ccc(-c2nc3c(C(=O)Nc4ccc(Cl)cc4)c(Nc4ccccc4)nn3c(-c3ccc(Cl)cc3)c2N)cc1 [3u, 6-Amino-N,7-bis(4-chlorophenyl)-2-(phenylamino)-5-p-tolylpyrazolo[1,5-a]pyrimidine-3-carboxamide]	55.6 ± 3.6	281 to 282	–
CCOC(=O)c1c(-c2ccccc2)nn2c(-c3cccs3)c(N)c(-c3ccc(Cl)cc3)nc12 [3ai, Ethyl 6-amino-5-(4-chlorophenyl)-2-phenyl-7-(thiophen-2-yl)pyrazolo[1,5-a]pyrimidine-3-carboxylate]	–	192 to 193	153 ± 5
COc1ccc(NC(=O)c2c(Nc3ccccc3)nn3c(-c4ccccc4)c(N)c(-c4ccc(OC)cc4)nc23)cc1 [3n, 6-Amino-N,5-bis(4-methoxyphenyl)-7-phenyl-2-(phenylamino)pyrazolo[1,5-a]pyrimidine-3-carboxamide]	42.6 ± 1.1	248 to 250	–
Nc1c(-c2ccc(Cl)cc2)nc2c(C(=O)Nc3ccccc3)c(Nc3ccccc3)nn2c1-c1cccs1 [3i, 6-Amino-5-(4-chlorophenyl)-N-phenyl-2-(phenylamino)-7-(thiophen-2-yl)pyrazolo[1,5-a]pyrimidine-3-carboxamide]	28.1 ± 1.2	270 to 271	–
COc1ccc(-c2nc3c(C(=O)Nc4ccccc4)c(Nc4ccccc4)nn3c(-c3ccccc3)c2N)cc1 [3e, 6-Amino-5-(4-methoxyphenyl)-N,7-diphenyl-2-(phenylamino)pyrazolo[1,5-a]pyrimidine-3-carboxamide]	63.3 ± 4.4	257 to 259	–
Nc1c(-c2ccccc2)nc2c(C(=O)Nc3ccccc3)c(Nc3ccccc3)nn2c1-c1ccc(Cl)cc1 [3a, 6-Amino-7-(4-chlorophenyl)-N,5-diphenyl-2-(phenylamino)pyrazolo[1,5-a]pyrimidine-3-carboxamide]	37.8 ± 2.5	248 to 249	–

Continued, values first:

IC50 ([1]; Table 1, compounds 3a-z) [µM]	melting point [°C]	IC50 ([1]; Table 2, compounds 3aa-ai) [µM]	SMILES
57.4 ± 3.8	256 to 258	–	COc1ccc(NC(=O)c2c(Nc3ccccc3)nn3c(-c4ccc(Br)cc4)c(N)c(-c4ccccc4)nc23)cc1 [3k, 6-Amino-7-(4-bromophenyl)-N-(4-methoxyphenyl)-5-phenyl-2-(phenylamino)pyrazolo[1,5-a]pyrimidine-3-carboxamide]
–	245 to 246	162 ± 3.2	CCOC(=O)c1c(-c2ccccc2)nn2c(-c3ccc(Cl)cc3)c(N)c(-c3ccc(Cl)cc3)nc12 [3ah, Ethyl 6-amino-5,7-bis(4-chlorophenyl)-2-phenylpyrazolo[1,5-a]pyrimidine-3-carboxylate]
49.3 ± 3.3	263 to 265	–	COc1ccc(NC(=O)c2c(Nc3ccccc3)nn3c(-c4ccc(Cl)cc4)c(N)c(-c4ccc(C)cc4)nc23)cc1 [3l, 6-Amino-7-(4-chlorophenyl)-N-(4-methoxyphenyl)-2-(phenylamino)-5-p-tolylpyrazolo[1,5-a]pyrimidine-3-carboxamide]
42.3 ± 3.1	274 to 275	–	Nc1c(-c2ccccc2)nc2c(C(=O)Nc3ccc(Cl)cc3)c(Nc3ccccc3)nn2c1-c1ccc(Cl)cc1 [3s, 6-Amino-N,7-bis(4-chlorophenyl)-5-phenyl-2-(phenylamino)pyrazolo[1,5-a]pyrimidine-3-carboxamide]

Source: article PMC7018746, “An efficient and targeted synthetic approach towards new highly substituted 6-amino-pyrazolo[1,5-a]pyrimidines with α-glucosidase inhibitory activity” (Scientific Reports, 2020)
